Experiments:
ovarian granulosa cells = assay: Protection of primary ovarian granulosa cells against doxorubicin (DOX) cytotoxicity, CCK-8; type: cell-based, mice; settings: DOX alone, final concentration 25 μg/mL
Experimental: In-vitro-Culture of granulosa cells of mice. Female ICR mice aged 21 to 23 days were euthanized by dislocation after anesthesia. After disinfecting the abdominal skin with 75% alcohol, bilateral ovaries were taken out and antral follicles were punctured under dissecting microscope to release granulosa cells into a M2 culture medium containing 20% FBS. Then the culture medium was centrifuged at 1,000 revolutions per minute for 5 minutes. Supernatant was discarded, and residue was washed three times with a culture medium, and then was placed in a 96 well plate in an alpha MEM culture medium containing 5% FBS for further culture. […]
After the granulosa cells in a 96 well plate prolificated to 70% to 80%, the culture medium was taken out, and 10 μL of the test drug (C1 (a compound represented by Formula I, m is 3, R1 is OH, and R2 is H), C2 (a compound represented by Formula I, m is 3, R1 is Cl, and R2 is H), C3 (a compound represented by Formula I, m is 3, R1 is OCH3, and R2 is H), C4 (a compound represented by Formula I, m is 3, R1 is H, and R2 is H)), 10 μL of DOX with a final concentration of 25 μg/mL, and 80 μL of fresh culture medium were sequentially added. […] The absorbance (OD) value (450 nm) of each well was measured using an enzyme-linked immunosorbent assay (ELISA) reader to calculate the survival rate of granulosa cells of mice. […]

[1] = tested on: Keap1-Nrf2/ARE signaling pathway; assay: Western blot of Keap1-Nrf2/ARE pathway related proteins in H2O2 induced SH-SY5Y nerve cell injury model; type: cell-based, human; settings: NAC 1 mM pre-treated 1 hour, then H2O2 400 μM 24 hours, P<0.05
Experimental: (§1) The culture of cells. Human neuroblastoma cells SH-SY5Y (American Type Culture Collection, Manassas, VA, USA) were cultivated in an incubator at 37° C. and a volume fraction of 5% CO2. The culture medium contains DMEM/F-12, 2 mM glutamine, 100 U/ml penicillin, 100 μg/ml streptomycin, and 10% FBS. Cells were seeded into a 96 well plate at a density of 2×10^4 cells per well and subjected to proliferation until 90%.
(§2) The cells were randomly divided into four groups: blank control group, hydrogen peroxide group (Veh), Mep-S group, and NAC group (a neuroprotective drug used as a positive control). The cells of Mep-S group (1 μM) and NAC group (1 mM) were pre-treated with corresponding concentrations of drugs for 1 hour. Then, except for the blank control group which was given physiological saline, the cells of all other groups were incubated with H2O2 (400 μM) for 24 hours.
Western blot was used to detect the expression levels of neuronal apoptosis protein (Caspase3) and Keap1-Nrf2/ARE pathway related proteins (Keap1, Nrf2, HO-1, NQO-1, etc.) in each group. The bands were visualized using enhanced chemiluminescence (Pierce, Rockford, IL, USA) and quantitative analysis was performed using Image Studio Lite 5.2.

SH-SY5Y cells = assay: Annexin V/PI dual staining, apoptosis by flow cytometry in H2O2 injured SH-SY5Y cells; type: cell-based, human; settings: NAC 1 mM pre-treated 1 hour, then H2O2 400 μM 24 hours; P<0.05
Experimental: as §1, §2
Annexin V/PI dual staining method was used to detect the protective effect of Mep-S on cellular oxidative damage. Cell apoptosis was measured by flow cytometry using FITC Annexin V apoptosis detection kit (BD Pharmingen, Franklin Lakes, NJ, USA). The operation was performed following the instructions.

[2] = compared with H2O2 damage group

| Compound | Cell survival rate (%) (ovarian granulosa cells; 24 hours, CCK-8 (positive control group)) | growth of granulosa cells (in words) (ovarian granulosa cells; p<0.01 versus negative control) | phosphorylation level of Akt [1] | level of HO-1 protein [1, 2] | level of Keap 1 protein [1, 2] | level of NQO-1 protein [1, 2] | level of Nrf2 protein in the cell nucleus [1, 2] | level of Nrf2 protein in the cytoplasm [1, 2] | apoptosis rate of SH-SY5Y cells (SH-SY5Y cells) |
| --- | --- | --- | --- | --- | --- | --- | --- | --- | --- |
| COc1cccc2c1C(=O)c1c(O)c3c(c(O)c1C2=O)C[C@@](O)(C(=O)CO)C[C@@H]3O[C@H]1C[C@H](N)[C@H](O)[C@H](C)O1 [DOX, doxorubicin] | 61.8 | significantly inhibited the growth | – | – | – | – | – | – | – |
| CC(=O)N[C@@H](CS)C(=O)O [NAC] | – | – | significantly restores its expression level | significantly inhibits the decrease | inhibits the increase | significantly inhibits the decrease | significantly inhibits the decrease | inhibits the increase | significantly reduces the apoptosis rate |
